Measured values reported in PubChem BioAssay (NCI).
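Protocol summary: plate cells (96-well), add compound at 5 concentrations, incubate 48 h, interpolate endpoints linearly. TGI: concentration producing complete growth inhibition.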

Assays:
Experiment in all cases: growth of human tumour cells (NCI), 48 h
COLO 205 colon = system: COLO 205 colon
CAKI-1 renal = system: CAKI-1 renal
IGROV1 ovarian = system: IGROV1 ovarian
SF-295 CNS = system: SF-295 CNS
NCI-H460 lung = system: NCI-H460 lung
MALME-3M melanoma = system: MALME-3M melanoma
SNB-75 CNS = system: SNB-75 CNS
HCT-15 colon = system: HCT-15 colon
PC-3 prostate = system: PC-3 prostate
SF-268 CNS = system: SF-268 CNS
LOX IMVI melanoma = system: LOX IMVI melanoma
NCI-H522 lung = system: NCI-H522 lung
HCC-2998 colon = system: HCC-2998 colon
SK-MEL-2 melanoma = system: SK-MEL-2 melanoma
HL-60(TB) leukemia = system: HL-60(TB) leukemia
OVCAR-5 ovarian = system: OVCAR-5 ovarian
RXF 393 renal = system: RXF 393 renal
BT-549 breast = system: BT-549 breast
HT29 colon = system: HT29 colon
U251 CNS = system: U251 CNS
NCI/ADR-RES ovarian = system: NCI/ADR-RES ovarian
MDA-N = system: MDA-N
A498 renal = system: A498 renal
CCRF-CEM leukemia = system: CCRF-CEM leukemia
RPMI-8226 leukemia = system: RPMI-8226 leukemia
ACHN renal = system: ACHN renal
SF-539 CNS = system: SF-539 CNS
M14 melanoma = system: M14 melanoma
OVCAR-8 ovarian = system: OVCAR-8 ovarian
NCI-H23 lung = system: NCI-H23 lung
T-47D breast = system: T-47D breast
SN12C renal = system: SN12C renal
786-0 renal = system: 786-0 renal
EKVX NSCLC = system: EKVX NSCLC
KM12 colon = system: KM12 colon
MDA-MB-435 = system: MDA-MB-435
SK-MEL-28 melanoma = system: SK-MEL-28 melanoma
HOP-62 NSCLC = system: HOP-62 NSCLC
HCT-116 colon = system: HCT-116 colon
UACC-62 melanoma = system: UACC-62 melanoma
MDA-MB-231 breast = system: MDA-MB-231 breast
K-562 leukemia = system: K-562 leukemia
SK-MEL-5 melanoma = system: SK-MEL-5 melanoma
OVCAR-4 ovarian = system: OVCAR-4 ovarian
UACC-257 melanoma = system: UACC-257 melanoma
HOP-92 NSCLC = system: HOP-92 NSCLC
DU-145 prostate = system: DU-145 prostate
SNB-19 CNS = system: SNB-19 CNS
A549 NSCLC = system: A549 NSCLC
TK-10 renal = system: TK-10 renal
HS 578T breast = system: HS 578T breast
MCF7 breast = system: MCF7 breast
SW-620 colon = system: SW-620 colon
MOLT-4 leukemia = system: MOLT-4 leukemia
SK-OV-3 ovarian = system: SK-OV-3 ovarian
OVCAR-3 ovarian = system: OVCAR-3 ovarian
UO-31 renal = system: UO-31 renal
NCI-H226 lung = system: NCI-H226 lung

SMILES: Cc1[nH]c2nc3c(ncn3COCCO)c(=O)n2c1C(c1ccccc1)(c1ccccc1)c1ccccc1
- TGI (COLO 205 colon): 31 µM
- TGI (CAKI-1 renal): > 100 µM
- TGI (IGROV1 ovarian): 28.4 µM
- TGI (SF-295 CNS): 34.2 µM
- TGI (NCI-H460 lung): 30.9 µM
- TGI (MALME-3M melanoma): 33.6 µM
- TGI (SNB-75 CNS): 26.7 µM
- TGI (HCT-15 colon): > 100 µM
- TGI (PC-3 prostate): 26 µM
- TGI (SF-268 CNS): 33.1 µM
- TGI (LOX IMVI melanoma): 27.8 µM
- TGI (NCI-H522 lung): 28.2 µM
- TGI (HCC-2998 colon): 26.4 µM
- TGI (SK-MEL-2 melanoma): 29.8 µM
- TGI (HL-60(TB) leukemia): 44.4 µM
- TGI (OVCAR-5 ovarian): 32.7 µM
- TGI (RXF 393 renal): 26.2 µM
- TGI (BT-549 breast): 2220 nM
- TGI (HT29 colon): 24.2 µM
- TGI (U251 CNS): 28 µM
- TGI (NCI/ADR-RES ovarian): > 100 µM
- TGI (MDA-N): 29.2 µM
- TGI (A498 renal): 33.3 µM
- TGI (CCRF-CEM leukemia): > 52.9 µM
- TGI (RPMI-8226 leukemia): 45.5 µM
- TGI (ACHN renal): 35.5 µM
- TGI (SF-539 CNS): 19.2 µM
- TGI (M14 melanoma): 33.3 µM
- TGI (OVCAR-8 ovarian): 32.4 µM
- TGI (NCI-H23 lung): 23.1 µM
- TGI (T-47D breast): 29.7 µM
- TGI (SN12C renal): 33 µM
- TGI (786-0 renal): 32.2 µM
- TGI (EKVX NSCLC): 41.8 µM
- TGI (KM12 colon): 28.5 µM
- TGI (MDA-MB-435): 24.3 µM
- TGI (SK-MEL-28 melanoma): 43.5 µM
- TGI (HOP-62 NSCLC): 44.3 µM
- TGI (HCT-116 colon): 29.3 µM
- TGI (UACC-62 melanoma): 24 µM
- TGI (MDA-MB-231 breast): 28.3 µM
- TGI (K-562 leukemia): 27.3 µM
- TGI (SK-MEL-5 melanoma): 29.4 µM
- TGI (OVCAR-4 ovarian): 30.4 µM
- TGI (UACC-257 melanoma): 27.4 µM
- TGI (HOP-92 NSCLC): 31.8 µM
- TGI (DU-145 prostate): 26.2 µM
- TGI (SNB-19 CNS): 28.6 µM
- TGI (A549 NSCLC): 40.5 µM
- TGI (TK-10 renal): 30.8 µM
- TGI (HS 578T breast): > 91.2 µM
- TGI (MCF7 breast): 23.1 µM
- TGI (SW-620 colon): > 56.4 µM
- TGI (MOLT-4 leukemia): 24.3 µM
- TGI (SK-OV-3 ovarian): 32.8 µM
- TGI (OVCAR-3 ovarian): 15.4 µM
- TGI (UO-31 renal): > 76.1 µM

SMILES: c1ccc2nn(C3CCCO3)nc2c1 (stereo unspecified)
- TGI (COLO 205 colon): > 100 µM
- TGI (CAKI-1 renal): > 100 µM
- TGI (IGROV1 ovarian): > 100 µM
- TGI (SF-295 CNS): > 100 µM
- TGI (NCI-H460 lung): > 100 µM
- TGI (MALME-3M melanoma): > 100 µM
- TGI (SNB-75 CNS): > 100 µM
- TGI (HCT-15 colon): > 100 µM
- TGI (PC-3 prostate): > 100 µM
- TGI (SF-268 CNS): > 100 µM
- TGI (NCI-H522 lung): > 100 µM
- TGI (HCC-2998 colon): > 100 µM
- TGI (SK-MEL-2 melanoma): > 100 µM
- TGI (HL-60(TB) leukemia): > 100 µM
- TGI (OVCAR-5 ovarian): > 100 µM
- TGI (RXF 393 renal): > 100 µM
- TGI (BT-549 breast): > 100000 nM
- TGI (HT29 colon): > 100 µM
- TGI (U251 CNS): > 100 µM
- TGI (NCI/ADR-RES ovarian): > 100 µM
- TGI (MDA-N): > 100 µM
- TGI (A498 renal): > 100 µM
- TGI (CCRF-CEM leukemia): > 100 µM
- TGI (NCI-H226 lung): > 100 µM
- TGI (SF-539 CNS): > 100 µM
- TGI (M14 melanoma): > 100 µM
- TGI (OVCAR-8 ovarian): > 100 µM
- TGI (NCI-H23 lung): > 100 µM
- TGI (T-47D breast): > 100 µM
- TGI (SN12C renal): > 100 µM
- TGI (786-0 renal): > 100 µM
- TGI (EKVX NSCLC): > 100 µM
- TGI (MDA-MB-435): > 100 µM
- TGI (HOP-62 NSCLC): > 100 µM
- TGI (HCT-116 colon): > 100 µM
- TGI (UACC-62 melanoma): > 100 µM
- TGI (MDA-MB-231 breast): > 100 µM
- TGI (K-562 leukemia): > 100 µM
- TGI (SK-MEL-5 melanoma): > 100 µM
- TGI (OVCAR-4 ovarian): > 100 µM
- TGI (UACC-257 melanoma): > 100 µM
- TGI (DU-145 prostate): > 100 µM
- TGI (A549 NSCLC): > 100 µM
- TGI (TK-10 renal): > 100 µM
- TGI (HS 578T breast): > 100 µM
- TGI (MCF7 breast): > 100 µM
- TGI (MOLT-4 leukemia): > 100 µM
- TGI (SK-OV-3 ovarian): > 100 µM
- TGI (OVCAR-3 ovarian): > 100 µM
